Measurements: patent publication US6951943B2, “Process for the preparation of phenylalanine enamide derivatives” (Celltech R & D Limited, priority 2002, dated 2005)

SMILES | melting point
CCOC(=O)[C@H](Cc1ccc(NC(=O)c2c(Cl)cncc2Cl)cc1)NC1=CC(=O)C12CCCCC2 [Example 1, Ethyl 2(S)-[(3-oxospiro[3.5]non-1-en-1-yl)amino]-3-{4-[(3,5-dichloroisonicotinoyl)amino]phenyl}propanoate] | 194 °C
CCOC(=O)[C@H](Cc1ccc(Nc2nccc3ccncc23)cc1)NC1=CC(=O)C12CCOCC2 [Example 9, Ethyl 3-[4-([2,7]naphthyridin-1-ylamino)phenyl]-2(S)-[(3-oxo-7-oxa-spiro[3.5]non-1-en-1-yl)amino]propanoate] | 112 °C
CCOC(=O)[C@H](Cc1ccc(Nc2nccc3ccncc23)cc1)NC1=C(SC(C)C)C(=O)C12CCOCC2 [Example 10, Ethyl 2(S)-[(2-isopropylsulfanyl-3-oxo-7-oxa-spiro[3.5]non-1-en-1-yl)amino]-3-[4-([2,7]naphthyridin-1-ylamino)phenyl]propanoate] | 221 °C
